Here are results for one molecule from patent US20110200545A1, “DEODORANT COMPOSITION AND METHODS FOR USE THEREOF” (priority 2010, published 2011).

Data set [1] is described as follows: pH of acidic solution of the substance by itself. Type of data set: physicochemical. Particulars: used by itself, unbuffered.
In another data set the test system is skin. As to the kind of experiment: application to skin, detrimental skin effects. The format is in vivo. The source says:
The low pKa results in an acidic solution having a pH of about 1.9, which damages skin and results in skin peeling in the hours and/or days following application to skin.
The pH of skin is about 5.5. When the pH of the skin surface is less than about 3.8, skin peeling results. Additionally, side effects of skin adjusted to a pH of less than about 3.8 include: skin inflammation, dermatitis, itching, and/or sensitizing of the skin.

Each structure is given as a SMILES string.

Turning to `CC(=O)Oc1ccccc1C(=O)O` [acetylsalicyclic acid], the “pH of acidic solution” value in data set [1] was “about 1.9”. Besides, the “detrimental effects on skin” value in the data set with skin (in a composition having a pH of about 3.8 or less) is “an acid burn of the skin, inflammation, itching, sensitizing, dermatitis, and/or skin peeling”. Further, in the data set on skin (used by itself, hours and/or days following application to skin), the effect on skin result was “acts as a skin peeler”.
